Experimental data from patent US8952024B2, “Herbicidal pyrimidone derivatives” (E I du Pont de Nemours and Company, priority 2009, dated 2015).

Tests used:
Assay in all cases: Test B pre-/postemergence plant response
Assay type in all cases: in vivo
[1] = test system: bermudagrass (Cynodon dactylon)
In short: (§1)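 Greenhouse herbicide screen. Pre- and postemergence (1- to 4-leaf) spray of compound in solvent/surfactant mixture; loam–sand soil for pre, peat/vermiculite medium for post. Visual control rating 0–100 at 13 to 15 days after treatment.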

[2] = test system: goosegrass (Eleusine indica)
In short: as §1

[3] = test system: green foxtail (Setaria viridis)
In short: as §1

[4] = test system: johnsongrass (Sorghum halepense)
In short: as §1

[5] = test system: kochia (Kochia scoparia)
In short: as §1

[6] = test system: lambsquarters (Chenopodium album)
In short: as §1

[7] = test system: large crabgrass (Digitaria sanguinalis)
In short: as §1

[8] = test system: ragweed (common ragweed, Ambrosia elatior)
In short: as §1

[9] = test system: soybean (Glycine max)
In short: as §1

[10] = test system: velvetleaf (Abutilon theophrasti)
In short: as §1

[11] = test system: wheat (Triticum aestivum)
In short: as §1

[12] = test system: woolly cupgrass (Eriochloa villosa)
In short: as §1

[13] = test system: yellow nutsedge (Cyperus esculentus)
In short: as §1

[14] = 31 g ai/ha, postemergence, scale 0 to 100, 0 is no effect, 100 is complete control
[15] = 250 g ai/ha, Preemergence, 0 to 100 scale
[16] = Postemergence, 62 g ai/ha, scale 0 (no effect) to 100 (complete control), 13 to 15 days
[17] = Postemergence, 125 g ai/ha, visual rating after 13 to 15 days, scale 0 (no effect) to 100 (complete control)
[18] = Postemergence, 250 g ai/ha, scale 0 to 100 (0 no effect, 100 complete control)
[19] = Preemergence, 31 g ai/ha, scale 0 to 100 (0 no effect, 100 complete control)
[20] = Preemergence, 62 g ai/ha, scale 0 to 100 (0 no effect, 100 complete control)
[21] = Preemergence, 125 g ai/ha, scale 0 to 100, 0 no effect, 100 complete control

SMILES: O=C1CCCC(O)=C1C(=O)c1cnc(-c2cccc(Cl)c2)n(-c2ccc(Cl)cc2)c1=O [Compound 64]
- Plant response rating, Bermudagrass [1, 14]: 95
- Plant response rating, Bermudagrass [1, 15]: 98
- Plant response rating, Bermudagrass [1, 16]: 95
- Plant response rating, Bermudagrass [1, 17]: 98
- Plant response rating, Bermudagrass [1, 18]: 98
- Plant response rating, Bermudagrass [1, 19]: 50
- Plant response rating, Bermudagrass [1, 20]: 85
- Plant response rating, Bermudagrass [1, 21]: 98
- Plant response rating, Goosegrass [2, 14]: 80
- Plant response rating, Goosegrass [2, 15]: 100
- Plant response rating, Goosegrass [2, 16]: 80
- Plant response rating, Goosegrass [2, 17]: 85
- Plant response rating, Goosegrass [2, 18]: 90
- Plant response rating, Goosegrass [2, 19]: 30
- Plant response rating, Goosegrass [2, 20]: 40
- Plant response rating, Goosegrass [2, 21]: 98
- Plant response rating, Foxtail, Green [3, 14]: 70
- Plant response rating, Foxtail, Green [3, 15]: 50
- Plant response rating, Foxtail, Green [3, 16]: 85
- Plant response rating, Foxtail, Green [3, 17]: 100
- Plant response rating, Foxtail, Green [3, 18]: 100
- Plant response rating, Foxtail, Green [3, 19]: 0
- Plant response rating, Foxtail, Green [3, 20]: 0
- Plant response rating, Foxtail, Green [3, 21]: 0
- Plant response rating, Johnsongrass [4, 14]: 90
- Plant response rating, Johnsongrass [4, 15]: 75
- Plant response rating, Johnsongrass [4, 16]: 98
- Plant response rating, Johnsongrass [4, 17]: 100
- Plant response rating, Johnsongrass [4, 18]: 100
- Plant response rating, Johnsongrass [4, 19]: 0
- Plant response rating, Johnsongrass [4, 20]: 0
- Plant response rating, Johnsongrass [4, 21]: 55
- Plant response rating, Kochia [5, 14]: 50
- Plant response rating, Kochia [5, 15]: 95
- Plant response rating, Kochia [5, 16]: 55
- Plant response rating, Kochia [5, 17]: 80
- Plant response rating, Kochia [5, 18]: 80
- Plant response rating, Kochia [5, 19]: 0
- Plant response rating, Kochia [5, 20]: 0
- Plant response rating, Kochia [5, 21]: 45
- Plant response rating, Lambsquarters [6, 14]: 95
- Plant response rating, Lambsquarters [6, 15]: 98
- Plant response rating, Lambsquarters [6, 16]: 100
- Plant response rating, Lambsquarters [6, 17]: 100
- Plant response rating, Lambsquarters [6, 18]: 100
- Plant response rating, Lambsquarters [6, 19]: 95
- Plant response rating, Lambsquarters [6, 20]: 98
- Plant response rating, Lambsquarters [6, 21]: 98
- Plant response rating, Crabgrass, Large [7, 14]: 85
- Plant response rating, Crabgrass, Large [7, 15]: 98
- Plant response rating, Crabgrass, Large [7, 16]: 90
- Plant response rating, Crabgrass, Large [7, 17]: 98
- Plant response rating, Crabgrass, Large [7, 18]: 98
- Plant response rating, Crabgrass, Large [7, 19]: 50
- Plant response rating, Crabgrass, Large [7, 20]: 75
- Plant response rating, Crabgrass, Large [7, 21]: 98
- Plant response rating, Ragweed [8, 14]: 85
- Plant response rating, Ragweed [8, 16]: 85
- Plant response rating, Ragweed [8, 17]: 90
- Plant response rating, Ragweed [8, 18]: 90
- Plant response rating, Ragweed [8, 19]: 0
- Plant response rating, Ragweed [8, 20]: 50
- Plant response rating, Ragweed [8, 21]: 75
- Plant response rating, Soybean [9, 14]: 85
- Plant response rating, Soybean [9, 16]: 98
- Plant response rating, Soybean [9, 17]: 98
- Plant response rating, Soybean [9, 18]: 98
- Plant response rating, Velvetleaf [10, 14]: 85
- Plant response rating, Velvetleaf [10, 16]: 98
- Plant response rating, Velvetleaf [10, 17]: 98
- Plant response rating, Velvetleaf [10, 18]: 100
- Plant response rating, Velvetleaf [10, 19]: 65
- Plant response rating, Velvetleaf [10, 20]: 75
- Plant response rating, Velvetleaf [10, 21]: 95
- Plant response rating, Wheat [11, 14]: 10
- Plant response rating, Wheat [11, 16]: 15
- Plant response rating, Wheat [11, 17]: 30
- Plant response rating, Wheat [11, 18]: 55
- Plant response rating, Wheat [11, 19]: 0
- Plant response rating, Wheat [11, 20]: 0
- Plant response rating, Wheat [11, 21]: 0
- Plant response rating, Cupgrass, Woolly [12, 14]: 75
- Plant response rating, Cupgrass, Woolly [12, 15]: 10
- Plant response rating, Cupgrass, Woolly [12, 16]: 95
- Plant response rating, Cupgrass, Woolly [12, 17]: 98
- Plant response rating, Cupgrass, Woolly [12, 18]: 98
- Plant response rating, Cupgrass, Woolly [12, 19]: 0
- Plant response rating, Cupgrass, Woolly [12, 20]: 0
- Plant response rating, Cupgrass, Woolly [12, 21]: 0
- Plant response rating, Nutsedge, Yellow [13, 14]: 0
- Plant response rating, Nutsedge, Yellow [13, 16]: 10
- Plant response rating, Nutsedge, Yellow [13, 17]: 10
- Plant response rating, Nutsedge, Yellow [13, 18]: 25
- Plant response rating, Nutsedge, Yellow [13, 19]: 0
- Plant response rating, Nutsedge, Yellow [13, 20]: 0
- Plant response rating, Nutsedge, Yellow [13, 21]: 0

SMILES: CCCCc1ncc(C(=O)C2=C(O)CCCC2=O)c(=O)n1-c1cccc(C)c1 [Compound 63]
- Plant response rating, Bermudagrass [1, 15]: 98
- Plant response rating, Bermudagrass [1, 16]: 85
- Plant response rating, Bermudagrass [1, 17]: 85
- Plant response rating, Bermudagrass [1, 18]: 95
- Plant response rating, Bermudagrass [1, 19]: 75
- Plant response rating, Bermudagrass [1, 20]: 98
- Plant response rating, Bermudagrass [1, 21]: 98
- Plant response rating, Goosegrass [2, 14]: 70
- Plant response rating, Goosegrass [2, 15]: 100
- Plant response rating, Goosegrass [2, 16]: 70
- Plant response rating, Goosegrass [2, 17]: 70
- Plant response rating, Goosegrass [2, 18]: 75
- Plant response rating, Goosegrass [2, 19]: 90
- Plant response rating, Goosegrass [2, 20]: 98
- Plant response rating, Goosegrass [2, 21]: 100
- Plant response rating, Foxtail, Green [3, 14]: 60
- Plant response rating, Foxtail, Green [3, 15]: 30
- Plant response rating, Foxtail, Green [3, 16]: 70
- Plant response rating, Foxtail, Green [3, 17]: 70
- Plant response rating, Foxtail, Green [3, 18]: 90
- Plant response rating, Foxtail, Green [3, 19]: 0
- Plant response rating, Johnsongrass [4, 15]: 60
- Plant response rating, Johnsongrass [4, 16]: 10
- Plant response rating, Johnsongrass [4, 17]: 10
- Plant response rating, Johnsongrass [4, 18]: 15
- Plant response rating, Johnsongrass [4, 19]: 0
- Plant response rating, Johnsongrass [4, 20]: 0
- Plant response rating, Johnsongrass [4, 21]: 55
- Plant response rating, Kochia [5, 14]: 10
- Plant response rating, Kochia [5, 15]: 100
- Plant response rating, Kochia [5, 16]: 25
- Plant response rating, Kochia [5, 17]: 25
- Plant response rating, Kochia [5, 18]: 65
- Plant response rating, Kochia [5, 19]: 0
- Plant response rating, Kochia [5, 20]: 100
- Plant response rating, Kochia [5, 21]: 100
- Plant response rating, Lambsquarters [6, 15]: 100
- Plant response rating, Lambsquarters [6, 16]: 95
- Plant response rating, Lambsquarters [6, 17]: 98
- Plant response rating, Lambsquarters [6, 18]: 98
- Plant response rating, Lambsquarters [6, 19]: 98
- Plant response rating, Lambsquarters [6, 20]: 98
- Plant response rating, Lambsquarters [6, 21]: 100
- Plant response rating, Crabgrass, Large [7, 14]: 70
- Plant response rating, Crabgrass, Large [7, 15]: 100
- Plant response rating, Crabgrass, Large [7, 16]: 75
- Plant response rating, Crabgrass, Large [7, 17]: 80
- Plant response rating, Crabgrass, Large [7, 18]: 90
- Plant response rating, Crabgrass, Large [7, 19]: 50
- Plant response rating, Crabgrass, Large [7, 20]: 85
- Plant response rating, Crabgrass, Large [7, 21]: 100
- Plant response rating, Ragweed [8, 14]: 70
- Plant response rating, Ragweed [8, 16]: 75
- Plant response rating, Ragweed [8, 17]: 80
- Plant response rating, Ragweed [8, 18]: 80
- Plant response rating, Ragweed [8, 19]: 65
- Plant response rating, Ragweed [8, 20]: 65
- Plant response rating, Ragweed [8, 21]: 70
- Plant response rating, Soybean [9, 14]: 75
- Plant response rating, Soybean [9, 16]: 75
- Plant response rating, Soybean [9, 17]: 85
- Plant response rating, Soybean [9, 18]: 85
- Plant response rating, Soybean [9, 19]: 0
- Plant response rating, Soybean [9, 20]: 0
- Plant response rating, Soybean [9, 21]: 5
- Plant response rating, Velvetleaf [10, 14]: 95
- Plant response rating, Velvetleaf [10, 16]: 98
- Plant response rating, Velvetleaf [10, 17]: 98
- Plant response rating, Velvetleaf [10, 18]: 98
- Plant response rating, Velvetleaf [10, 19]: 75
- Plant response rating, Velvetleaf [10, 20]: 90
- Plant response rating, Velvetleaf [10, 21]: 100
- Plant response rating, Wheat [11, 14]: 0
- Plant response rating, Wheat [11, 16]: 0
- Plant response rating, Wheat [11, 17]: 0
- Plant response rating, Wheat [11, 18]: 10
- Plant response rating, Wheat [11, 19]: 0
- Plant response rating, Wheat [11, 20]: 0
- Plant response rating, Wheat [11, 21]: 0
- Plant response rating, Cupgrass, Woolly [12, 14]: 50
- Plant response rating, Cupgrass, Woolly [12, 15]: 10
- Plant response rating, Cupgrass, Woolly [12, 16]: 60
- Plant response rating, Cupgrass, Woolly [12, 17]: 65
- Plant response rating, Cupgrass, Woolly [12, 18]: 65
- Plant response rating, Cupgrass, Woolly [12, 19]: 0
- Plant response rating, Cupgrass, Woolly [12, 20]: 0
- Plant response rating, Cupgrass, Woolly [12, 21]: 0
- Plant response rating, Nutsedge, Yellow [13, 14]: 20
- Plant response rating, Nutsedge, Yellow [13, 16]: 20
- Plant response rating, Nutsedge, Yellow [13, 17]: 50
- Plant response rating, Nutsedge, Yellow [13, 18]: 60
- Plant response rating, Nutsedge, Yellow [13, 19]: 10
- Plant response rating, Nutsedge, Yellow [13, 20]: 15
- Plant response rating, Nutsedge, Yellow [13, 21]: 25
